Measured values: PMC5786306, “An AKAP-Lbc-RhoA interaction inhibitor promotes the translocation of aquaporin-2 to the plasma membrane of renal collecting duct principal cells” (PLoS ONE, 2018)

Key:
[1] = test system: AQP2 localization and F-actin in primary IMCD cells; test: Immunofluorescence microscopy of AQP2 and F-actin in primary IMCD cells; type: cell-based, rat
Source text: Primary rat renal inner medullary collecting duct (IMCD) cells were obtained and cultured as previously described. AQP2 was detected with specific rabbit (H27 antibody) and secondary Cy3-coupled antibodies, and F-actin was visualized with Alexa Fluor 647-Phalloidin by laser scanning microscopy (LSM780; Zeiss Jena, Germany) as described.
Fig 8 Scaff10-8 promotes the redistribution of AQP2 to the plasma membrane of primary IMCD cells, which is independent of cAMP elevation and associated with depolymerization of F-actin. (A) Upper panel. IMCD cells were treated with DMSO (1%; control), the solvent of Scaff10-8, or forskolin (10 μM, 30 min) to stimulate cAMP synthesis. Lower panels: The cells were treated for 1 hour with Scaff10-8 (30 μM) alone (control) or with Scaff10-8 and forskolin. Forskolin (10 μM) was added for the final 30 min of Scaff10-8 incubation. AQP2 (green) was detected with specific primary and Cy3-coupled secondary antibodies, F-actin (red) with Alexa Fluor 647-Phalloidin and nuclei with DAPI (blue). Signals were visualized using a laser scanning microscope. Representative images are shown. n = 3. The magnified views were derived from the indicated boxes. (B) The signal intensities arising from intracellular and plasma membrane AQP2 were recorded, related to nuclear signal intensities, and the ratios of plasma membrane to intracellular fluorescence signal intensities were calculated (n = 30 cells per condition). Ratios > 1 indicate a predominant localization of AQP2 at the plasma membrane. Statistically significant differences were calculated using one-way ANOVA with posthoc Bonferroni. Mean ± SEM; *, p ≤ 0.05; *** p ≤ 0.001.

[2] = test system: AQP2 insertion into the plasma membrane of IMCD cells; test: Biotinylation of cell surface proteins; type: cell-based, rat; conditions: Scaff10-8 30 μM, 1 or 24 h, forskolin 30 μM, 30 min
Procedure: The assay was performed according to Bogum et al.. IMCD cells were treated with Scaff10-8 at a concentration of 30 μM for 1 or 24 h (0.3% DMSO final concentration). DMSO (0.3%) was used as a control for the 24 h of incubation. Cells were stimulated with forskolin (30 min, 30 μM). Cells were washed twice with ice-cold PBS and incubated with biotinylation buffer (500 μg Biotin per well; 10 mM triethanolamine; 150 mM NaCl; 1 mM MgCl2; 0.1 mM CaCl2; pH 8.0) for 60 min at 4°C. After two washing steps with biotinylation buffer, cells were incubated for 10 min with quenching buffer (50 mM NH4Cl in PBS) at 4°C. Lysates were prepared using biotinylation lysis buffer 1 (SLB; 0.5% Triton X-100; 0.2% BSA; Complete mini EDTA-free). Lysates were sonicated and incubated for 20 min at 37°C. Cell debris was removed by centrifugation (30 min, 15,000x g, 4°C). Lysates were incubated with 80 μl streptavidin agarose beads at 4°C overnight. Beads were washed three times with biotinylation lysis buffer 1 and 2 (SLB; 0.5% Triton X-100; Complete mini EDTA-free). Proteins were eluted using sample buffer and analyzed by Western blotting.
(A) IMCD cells were treated with either compound (30 μM) or DMSO for 1 or 24 h. Membrane proteins were biotinylated followed by precipitation with streptavidin agarose beads. […] (B) Signals from A were quantified by densitometric analysis. […]

[3] = test system: hypercholesterolemic patients; parameters: method as in PMID 26575415, PMID 21858457; conditions: cited from earlier work
[4] = target: T1, untagged RhoA (human, UniProt P61586 1-193); test: MST; GFP-AKAP-Lbc/DHPH constant at 150 nM, unlabeled RhoA titrated 36.01 nM-590 uM in MST buffer; 1 h at room temperature; Monolith NT.115; conditions: both partners purified
T1 construct: RhoA; also called unlabeled RhoA; source: recombinant, purified
T1 sequence (P61586 whole entry): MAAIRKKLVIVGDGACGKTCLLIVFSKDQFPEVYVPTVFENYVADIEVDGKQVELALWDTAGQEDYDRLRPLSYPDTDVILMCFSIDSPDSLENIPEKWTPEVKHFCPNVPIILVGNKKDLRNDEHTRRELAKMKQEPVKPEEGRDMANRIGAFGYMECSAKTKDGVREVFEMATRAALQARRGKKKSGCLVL

C=C[C@@]1(C)CC(=O)[C@]2(O)[C@@]3(C)[C@@H](O)CCC(C)(C)[C@@H]3[C@H](O)[C@H](OC(C)=O)[C@@]2(C)O1 [forskolin, reference compound]
F-actin ([1]; Scaff10-8 30 μM alone, forskolin alone): caused depolymerization
localization of AQP2 ([1]; Scaff10-8 30 μM, 1 h, no forskolin, forskolin 10 μM, 30 min): induced its redistribution to the plasma membrane
insertion of AQP2 into the plasma membrane [2]: induced the membrane insertion of AQP2

CCC(C)(C)C(=O)O[C@H]1C[C@@H](C)C=C2C=C[C@H](C)[C@H](CC[C@@H]3C[C@@H](O)CC(=O)O3)[C@H]21 [simvastatin]
diuresis and urine osmolality [3]: reduced diuresis and increased urine osmolality

B1: GFP-AKAP-Lbc/DHPH (domain or fragment)
chain: EAESWSRIIDSKFLKQQKKDVVKRQEVIYELMQTEFHHVRTLKIMSGVYSQGMMADLLFEQQMVEKLFPCLDELISIHSQFFQRILERKKESLVDKSEKNFLIKRIGDVLVNQFSGENAERLKKTYGKFCGQHNQSVNYFKDLYAKDKRFQAFVKKKMSSSVVRRLGIPECILLVTQRITKYPVLFQRILQCTKDNEVEQEDLAQSLSLVKDVIGAVDSKVASYEKKVRLNEIYTKTDSKSIMRMKSGQMFAKEDLKRKKLVRDGSVFLKNAAGRLKEVQAVLLTDILVFLQEKDQKYIFASLDQKSTVISLKKLIVREVAHEEKGLFLISMGMTDPEMVEVHASSKEERNSWIQIIQDTINTL
modifications: GFP and His6 tags left out. Limits are codons 1972-2335, from bp 5,914-7,005 of CCDS32320.1 (human CDS); the nucleotide changes only removed rare codons. The range encloses the annotated DH …
Kd [4]: 42 µM
